PMC5748433, “Study on the effect of EMD386088, a 5-HT6 receptor partial agonist, in enhancing the anti-immobility action of some antidepressants in rats” (Naunyn-Schmiedeberg's Archives of Pharmacology, 2017)
Like-named read-outs stand apart in the source and are kept apart here.

Tests used:
[1] = system: serotonin (5-HT) transporter; set-up: method as in Jastrzębska-Więsek et al. [2013]; conditions: ref Jastrzębska-Więsek et al. [2013]; cited from earlier work
[2] = system: dopamine D2; set-up: method as in Jastrzębska-Więsek et al. [2013]; conditions: ref Jastrzębska-Więsek et al. [2013]; cited from earlier work
[3] = Metabolic stability in rat liver microsomes (RLMs); type: in vitro ADME
Procedure: The in silico study was performed by MetaSite 5.1.1 provided by Molecular Discovery Ltd. The highest metabolism probability sites and the prediction of the structures of metabolites were analyzed during this study by liver computational model (Cruciani et al. [2005]).
Commercial, pooled, rat liver microsomes (RLMs) were purchased from Sigma-Aldrich (St. Louis, USA). The biotransformations were carried out using 1 mg/mL of RLMs in 200 μL of reaction buffer containing 0.1 M Tris-HCl (pH 7.4) and EMD386088 with final […] 50 μM. The reaction mixture was preincubated at 37 °C for 5 min and then, the reaction was initiated by adding 50 μL of NADPH Regeneration System (Promega, Madison, WI, USA). The reaction was terminated after 30 or 120 min by the addition of 200 μL of cold methanol. The mixture was next centrifuged at 14000 rpm for 15 min and the UPLC/MS analysis of the supernatant was performed. Mass spectra was recorded on UPLC/MS system consisted of a Waters Acquity UPLC (Waters, Milford, USA), coupled to a Waters TQD mass spectrometer (electrospray ionization mode ESI-tandem quadrupole).

[4] = system: 5-HT6 receptor; conditions: cited from earlier work
[5] = Pharmacokinetic study in rats, plasma (LC/MS/MS, non-compartmental); type: in vivo, rat; conditions: for Vd/F / AUC(0-t) / CL/F / Cmax / MRT / half-life / Tmax: rat, plasma
Procedure: Blood samples were collected at 0 min (predose), 5 min, 15 min, 30 min, 60 min, 120 min, and 240 min after injections. The blood was collected from right ventricle under anesthesia using a mixture of ketamine (50 mg/kg)/xylasine (8 mg/kg) in the ratio of 3:1, and 0.025 mL of a mixture for 10 g body weight was injected i.p. 10 min before planned blood collection. Blood and brain samples were collected under general anesthesia induced by i.p. injections of ketamine (50 mg/kg)/xylasine (8 mg/kg). The blood samples were taken into heparinized tubes, immediately centrifuged at 3500 rpm for 10 min, and plasma was collected. After the blood was drawn, the rat’s spinal cord was cut and the cerebral tissue was removed, and after dissection washed in PBS saline. The brain and plasma samples were immediately frozen at − 80 °C for LC/MS/MS analysis.
Pharmacokinetic parameters were calculated by a non-compartmental approach from the average concentration values, using Phoenix WinNonlin software (Certara, Princeton, NJ 08540 USA). First order elimination rate constant (λz) was calculated by linear regression of time versus log concentration.
The quantification of studied compounds in plasma and brain samples was done using HPLC Agilent 1100 system (Agilent Technologies, Waldbronn, Germany) coupled to the triple quadrupole mass spectrometer API 2000 (ABSciex, Framingham, Massachusetts, USA) equipped with an electrospray ion source. After preparation, the samples were injected (20 μL) onto XBridge C18 (2.1 mm × 30 mm, 3.5 μm, Waters, Milford, Massachusetts, USA) analytical column. The mobile phase consisted of ACN with 0.1% formic acid (A) and water with 0.1% formic acid (B) were delivered in gradient elution started with 90% of eluent B, increasing during 2 min to 90% of eluent A, maintained to 3 min, and then returned during 5 min to 90% of eluent B, and maintained 90% of eluent B during 5 min at a flow rate of 300 μL/min. The total time of analysis was 15 min. Electrospray ionization process was performed in positive ionization and the data acquisition was carried out in multiple reaction monitoring mode (MRM) for EMD386088 and its internal standard (nebivolol). The ion spray source settings were as follows: spray voltage: 5 kV, heater temperature: 350 °C, curtain gas: 15 psi, source gas 1: 35 psi, source gas 2: 10 psi. The ions measured were m/z 247.3 (Q1) and m/z 168.2 (Q3) for EMD386088, and m/z 406.2 (Q1) and m/z 151.1 (Q3) for IS.
A sample volume of 50 μL of plasma or brain homogenate was transferred into the clean Eppendorf tube and spiked with 5 μL of IS solution (1 μg/mL) obtaining the final concentration of 100 ng/mL. After 5 min of mixing (1500 rpm), proteins were precipitated using 150 μL ACN. After 10 min of samples shaking (1500 rpm), the incubation step was performed (10 min, 4 °C). Next, samples were centrifuged (10,000 rpm, 10 min, 4 °C) and the supernatant was transferred into chromatographic vial for LC/MS/MS analysis. The brain homogenate was prepared maintaining the tissue: phosphate-buffered saline (PBS) at a ratio of 1:5. The homogenization was carried out employing IKA® T10 Basic ULTRA-TURRAX disperser (IKA Werke GmbH & Co. KG, Staufen, Germany). After homogenization, 50 μL of sample was collected for further preparation. All samples were stored on ice during the preparation process.

[6] = system: β1-adrenoceptors; set-up: method as in Jastrzębska-Więsek et al. [2013]; conditions: ref Jastrzębska-Więsek et al. [2013]; cited from earlier work
[7] = system: dopamine transporter (DAT); set-up: method as in Jastrzębska-Więsek et al. [2016]; conditions: functional in vitro study; ref Jastrzębska-Więsek et al. [2016]; cited from earlier work
[8] = system: α1-adrenoceptors; set-up: method as in Jastrzębska-Więsek et al. [2013]; conditions: ref Jastrzębska-Więsek et al. [2013]; cited from earlier work
[9] = ip, 2.5 mg/kg, rat plasma, EMD386088 2.5 mg/kg i.p. alone
[10] = ip, 2.5 mg/kg, rat plasma, EMD386088 2.5 mg/kg i.p. jointly with imipramine (IMI) 15 mg/kg i.p.
[11] = ip, 5 mg/kg, rat plasma, EMD386088 5 mg/kg i.p. alone
[12] = rats, EMD386088 with imipramine vs alone

In the case of `Cc1[nH]c2ccc(Cl)cc2c1C1=CCNCC1.Cl` [EMD386088, 5-chloro-2-methyl-3-(1,2,3,6-tetrahydro-4-pyridinyl)-1H-indole hydrochloride], the “affinity for serotonin (5-HT) transporter” value [1] is listed as “no affinity”, the “affinity for dopamine D2” value [2] is listed as “no affinity” and the “compound metabolized in the presence of RLMs” value ([3]; RLMs 1 mg/mL, EMD386088 50 μM, after 120 min, 37 °C) is listed as roughly 40%. The main metabolic pathway ([3]; in silico (MetaSite) and in vitro (RLMs) studies) was “dehydrogenation of tetrahydropyridine moiety”, the “5-HT6 receptor functional profile” value ([4]; in vitro, ref Jastrzębska-Więsek et al. [2013]) was “potent 5-HT6 receptor partial agonist” and the EC50 ([4]; read-out: EC50 5-HT6 receptor agonist, ref Mattsson et al. ([2005])) was 1 nM. For the same compound, the Vd/F ([5]; intraperitoneal, rats, EMD386088 2.5 mg/kg coadministered with imipramine 15 mg/kg, read-out: volume of distribution V d/F) was 32.2 L/kg, the AUC(0-t) [5, 9] was 36.8 ng·h/mL and the CL/F [5, 9] was 1050 mL/min/kg. It also gave a Cmax [5, 9] of 22.9 ng/mL, an MRT [5, 9] of 1.31 h and a Vd/F ([5]; ip, 2.5 mg/kg, rat plasma, EMD386088 2.5 mg/kg i.p. alone, read-out: V d/F) of 102 L/kg. The half-life ([5]; ip, 2.5 mg/kg, rat plasma, EMD386088 2.5 mg/kg i.p. alone, read-out: t1/2) was 1.12 h, the Tmax ([5]; ip, 2.5 mg/kg, rat plasma, EMD386088 2.5 mg/kg i.p. alone, read-out: t max (converted)) was 0.0833 h and the AUC(0-t) [5, 10] was 125 ng·h/mL. For the same compound, the CL/F [5, 10] was 289 mL/min/kg, the Cmax [5, 10] was 49 ng/mL and the MRT [5, 10] was 1.55 h. It also gave a Vd/F ([5]; ip, 2.5 mg/kg, rat plasma, EMD386088 2.5 mg/kg i.p. jointly with imipramine (IMI) 15 mg/kg i.p., read-out: V d/F) of 32.2 L/kg, a half-life ([5]; ip, 2.5 mg/kg, rat plasma, EMD386088 2.5 mg/kg i.p. jointly with imipramine (IMI) 15 mg/kg i.p., read-out: t1/2) of 1.28 h and a Tmax ([5]; ip, 2.5 mg/kg, rat plasma, EMD386088 2.5 mg/kg i.p. jointly with imipramine (IMI) 15 mg/kg i.p., read-out: t max (converted)) of 1 h. For the same compound, the AUC(0-t) [5, 11] was 75.5 ng·h/mL, the CL/F [5, 11] was 1040 mL/min/kg and the Cmax [5, 11] was 45.2 ng/mL. The MRT [5, 11] was 1.3 h, the Vd/F ([5]; ip, 5 mg/kg, rat plasma, EMD386088 5 mg/kg i.p. alone, read-out: V d/F) was 97.1 L/kg and the half-life ([5]; ip, 5 mg/kg, rat plasma, EMD386088 5 mg/kg i.p. alone, read-out: t1/2) was 1.08 h. It also gave a Tmax ([5]; ip, 5 mg/kg, rat plasma, EMD386088 5 mg/kg i.p. alone, read-out: t max (converted)) of 0.0833 h, a half-life ([5]; ip, 5 mg/kg, rats, EMD386088 alone (2.5 and 5 mg/kg) i.p., read-out: t 1/2 (terminal half-life)) of 1.12 h and a Tmax ([5]; ip, 5 mg/kg, rats, EMD386088 alone (2.5 and 5 mg/kg) i.p., read-out: t max (time to maximum concentration in the blood) (converted)) of 0.0833 h. For the same compound, the Vd/F ([5]; ip, rats, EMD386088 alone i.p., read-out: volume of distribution V d/F) was 102 L/kg, the “change of area under the concentration-time curve (AUC) on coadministration with imipramine” value [5, 12] was “increased three times” and the “change of volume of distribution on coadministration with imipramine” value [5, 12] was “decreased three times”. For the same compound, the “affinity for β1-adrenoceptors” value [6] was “no affinity”, the “affinity for dopamine transporter (DAT)” value [7] was “significant affinity” and the “affinity for α1-adrenoceptors” value [8] was “no affinity”.
